Patent US20250129045A1, “SMALL MOLECULE PIM AND MTOR KINASE INHIBITOR AND METHODS OF USE THEREOF” (Arizona Board of Regents on Behalf of the University of …, priority 2022, published 2025)
Entries after “also recorded” stand apart in the source; their conditions may differ. Where two headings read alike, the source gives them in different places.

Assays:
[1] = test system: PC3-LN4 cells; test: Western blotting of PC3-LN4 cell lysates; type: cell-based, human
Method: (§1) FIG. 7A: In vitro co-precipitation (Co-PPT) assay was performed with recombinant EDC3 and biotinylated Pim1 using Streptavidin beads with increasing concentrations of the Pim inhibitor VBT5445 (VBT). FIG. 7B: Kinase assays were performed with recombinant EDC3 and Pim1 with increasing concentrations of VBT. FIG. 7C: Cell lysates from PC3-LN4 cells cultured with DMSO, 10 μM VBT, 3 μM AZD5363 (AKTi) and the combination for 6 hrs were subjected to western blotting (WB). […] WBs were performed using the indicated antibodies. FIG. 7E: PC3-LN4 cells were seeded into 48 well plate and incubated with either DMSO, VBT, AZD5363 or the combination, for 4.5 days. A real-time imaging system (IncuCyte™) was used to measure cell proliferation using a non-label cell monolayer confluence approach. FIG. 7F-7H: GFP image in PC3 LN4 GFP EDC3 expressing cells treated with PIMi: VBT (5 μM) and VBT (5 μM)+AZD5363 (3 μM) for 6 hrs.
Extracts were subjected to Western blotting with the indicated antibodies.
(§2) Immunoblotting: Western blots were performed as described previously. Briefly, protein lysates (30 μg) were subjected to SDS-PAGE and transferred to nitrocellulose membranes. After blocking with 5% milk in TBST buffer for 30 min at room temperature, the membranes were incubated overnight at 4° C. with the Indicated primary antibody in 3% BSA in TBST. Specific proteins were detected with the corresponding HRP conjugated secondary antibody using enhanced chemiluminescence (GE Lifesciences, Piscataway, NJ).

[2] = test system: T-cell acute lymphoblastic leukemia cell line DU528; test: Cell viability (XTT) assay in T-ALL cells; type: cell-based; conditions: 72 h, listed as VBT 1-34
Method: Cell viability (XTT) assay: T-ALL cells were seeded into 96 well plates at a density of 20,000 cells per well and treated with VBT-5445 for 72 h, using DMSO as control. Cell viability was measured using XTT cell proliferation assay (Trevigen Cat #4891-025-K) following the manufacturer's protocol. Briefly, XTT reagent was added to cell culture after the treatment and incubated for 4 h at 37° C. and 5% CO2. The absorbance of the colored formazan product was measured at 450 nm.

[3] = test system: Pim kinase; test: Pim substrate phosphorylation in LNCaP prostate cancer cells (Western blot); type: cell-based; conditions: serum-starved conditions
Method: Right: LNCaP and LNCaP stably expressed Pim1 cells were treated with DMSO and GRG-1-34 ([…]) without FBS medium for 6 h. Lysates (25 μg) were subjected to western blotting with the antibodies for P-IRS1 (S1101), IRS1, P-elF4B (S406), elF4B, P-EDC3 (S161), EDC3, Pim1, and β-Actin.
as §2

[4] = target: Pim1 (Homo sapiens, UniProt P11309); test: Kinase assay with purified Pim1 and EDC3 (EDC3 S161 phosphorylation); type: biochemical; conditions: in vitro, FIG. 8
Pim1, sequence (P11309 whole entry): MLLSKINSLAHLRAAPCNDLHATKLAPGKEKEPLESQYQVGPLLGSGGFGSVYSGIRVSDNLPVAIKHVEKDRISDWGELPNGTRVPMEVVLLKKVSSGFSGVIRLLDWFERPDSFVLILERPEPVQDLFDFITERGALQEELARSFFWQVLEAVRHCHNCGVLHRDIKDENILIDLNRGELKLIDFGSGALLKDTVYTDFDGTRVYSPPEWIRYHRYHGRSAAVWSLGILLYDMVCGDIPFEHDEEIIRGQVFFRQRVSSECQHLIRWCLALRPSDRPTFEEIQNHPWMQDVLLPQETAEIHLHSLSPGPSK
Method: as §1, with “FIGS. 7A-7I show inhibition of VBT5445 (VBT) on Pim1 and EDC3 binding and phosphorylation. FIG. 7A:” for “FIG. 7A:”
Computer screening followed by surface plasmon resonance (SPR) yielded a lead compound VBT-5445 that can interact with the Pim-1 protein kinase. Enhancer of mRNA Decapping 3 (EDC3) is a substrate of the Pim kinase that regulates the decapping of messenger RNA, and its activity is modulated by Pim mediated phosphorylation. […]

[5] = test system: PANC1 pancreatic cancer cells; test: Growth inhibition of PANC1 pancreatic cancer cells; type: cell-based
Method: Cell growth assay: Tumor cells were seeded into 48 well plates (1000 cells/well) and treated with varied agents. The Incucyte real-time imaging system (Incucyte) was used to measure cell proliferation using a non-label cell monolayer confluence approach. The images were captured every 12 h. Graphs were generated using an integrated confluence metric as an alternative for cell numbers. At the end of the study cell growth was visualized by crystal violet staining.
Because of ease of growth, PANC1 pancreatic cancer cells were used to test the activity of derivatives of VBT-5445 (FIG. 14). […] Using a doxycycline inducible Pim kinase vector in these tumor cells, this inhibition of phosphorylation was proportional to the level of Pim in these cells (FIG. 9). […] Inhibition of mTORC1 is known to stimulate the feedback activation of mTORC2 leading to AKT phosphorylation. […] The effect of these compounds on mTORC1 and 2 was still evident in PC3-LN4 cells that contained a knockout (KO) using CRISPR/CAS9 of either TSC2 or DEPDC5 (FIG. 12, lanes 4-9). TSC2 KO activated the Rheb GTPase while DEPDC5 KO activated the RAG GTPase both of which stimulate mTORC1 activity. Thus, GRG compounds were capable of inhibiting mTORC1 activity even when this kinase was highly activated.

## O=c1c(CNCc2cc(Br)ccn2)cc2ccc(Cl)cc2n1CCOc1ccccc1 [GRG-1-34, 3-((((4-bromopyridin-2-yl)methyl)amino)methyl)-7-chloro-1-(2-phenoxyethyl) quinolin-2 (1H)-one]
[1]
  cellular level of Pim kinases: decreases
  cellular level of c-Myc protein: decreases
  mTORC1 activity: phosphorylation of the S6 protein: inhibited the phosphorylation of the mTORC1 substrate S6 protein
  phosphorylation of AKT on serine 473: increased the phosphorylation of AKT on serine 473
[1]; listed as VBT 1-34
  mTORC1 activity: phosphorylation of the S6 protein: decreases
[2]
  growth of T-acute lymphoblastic leukemia cells: inhibits the growth; also recorded: shows activity
[3]
  Pim kinase activity: Pim substrate phosphorylation (IRS1, elF4B, EDC3): decreased Pim substrate phosphorylation
[3]; listed as GRG 1-34
  Pim kinase activity: Pim substrate phosphorylation (IRS1, elF4B, EDC3): suppresses Pim kinase activity
[3]; listed as VBT 1-34
  Pim kinase activity: Pim substrate phosphorylation (IRS1, elF4B, EDC3): inhibits Pim activity
[4]
  inhibition of the ability of Pim to phosphorylate EDC3: inhibit the ability of Pim to phosphorylate EDC3
[5]
  growth inhibitory activity against PANC1 pancreatic cancer cells: most active
[5]; listed as VBT 1-34
  growth inhibitory activity against PANC1 pancreatic cancer cells: inhibits the growth; also recorded: shows activity
